Where two headings read alike, the source gives them in different places.
Legend:
Test in all cases: biochemical
Format in all cases: binding
[1] = biological target: cellular kinases of SH-SY5Y cells (Homo sapiens, UniProt O14965); conditions: 2µM, SH-SY5Y cells, read-out: KiNativ in-cell binding, % Inhibition, AURKA/AurA
From the text: (§1) As KINOMEscan is an in vitro assay, and as different cell types have variable kinase expression profiles we sought to determine the kinase binding profile in our SH-SY5Y TFEB-relocalization cell model. […] Bound kinases were pulled down and analyzed by mass spectrometry to determine the in situ kinase binding profile for each compound.

[2] = biological target: T1, cellular kinases of SH-SY5Y cells (Homo sapiens, UniProt O60307); conditions: 2µM; SH-SY5Y cells; Labeling Site Lys2; DLKPDNLLITSLGHIK; read-out: KiNativ in-cell binding, % Inhibition, MAST3
T1 construct: endogenous in cells; host or cells: SH-SY5Y
From the text: as §1

[3] = biological target: T2, cellular kinases of SH-SY5Y cells (Homo sapiens, UniProt O95835); conditions: 2µM, SH-SY5Y cells, read-out: KiNativ in-cell binding, % Inhibition, LATS1
T2 construct: endogenous in cells; host or cells: SH-SY5Y
From the text: as §1

[4] = biological target: cellular kinases of SH-SY5Y cells (Homo sapiens, UniProt P04049); conditions: 2µM; SH-SY5Y cells; Labeling Site Lys2; DMKSNNIFLHEGLTVK; read-out: KiNativ in-cell binding, % Inhibition, RAF1
From the text: as §1

[5] = biological target: cellular kinases of SH-SY5Y cells (Homo sapiens, UniProt P11802); conditions: 2µM; SH-SY5Y cells; Labeling Site Lys2; DLKPENILVTSGGTVK; read-out: KiNativ in-cell binding, % Inhibition, CDK4
From the text: as §1

[6] = biological target: T3, cellular kinases of SH-SY5Y cells (Homo sapiens, UniProt P23743)
T3 construct: endogenous in cells; host or cells: SH-SY5Y
From the text: as §1

[7] = biological target: cellular kinases of SH-SY5Y cells (Homo sapiens, UniProt P31749); conditions: 2µM; SH-SY5Y cells; Labeling Site ATP Loop; GTFGKVILVK; read-out: KiNativ in-cell binding, % Inhibition, AKT1
From the text: as §1

[8] = biological target: cellular kinases of SH-SY5Y cells (Homo sapiens, UniProt P42345); conditions: 2µM; SH-SY5Y cells; Labeling Site ATP; IQSIAPSLQVITSKQRPR; read-out: KiNativ in-cell binding, % Inhibition, MTOR
From the text: as §1

[9] = biological target: T4, cellular kinases of SH-SY5Y cells (Homo sapiens, UniProt P46734); conditions: 2µM, SH-SY5Y cells
T4 sequence (P46734 1-347): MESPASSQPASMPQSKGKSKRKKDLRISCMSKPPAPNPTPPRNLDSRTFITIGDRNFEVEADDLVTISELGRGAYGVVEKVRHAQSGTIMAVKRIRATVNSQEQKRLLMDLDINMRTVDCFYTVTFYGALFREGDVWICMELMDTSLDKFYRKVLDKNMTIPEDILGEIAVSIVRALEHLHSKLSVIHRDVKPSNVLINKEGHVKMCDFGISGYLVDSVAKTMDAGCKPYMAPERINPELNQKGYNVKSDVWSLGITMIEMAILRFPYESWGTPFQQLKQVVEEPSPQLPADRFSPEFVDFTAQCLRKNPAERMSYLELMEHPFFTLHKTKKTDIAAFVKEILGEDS
From the text: as §1

[10] = biological target: cellular kinases of SH-SY5Y cells (Homo sapiens, UniProt P51812); conditions: 2µM; SH-SY5Y cells; Labeling Site Lys2; DLKPSNILYVDESGNPESIR; read-out: KiNativ in-cell binding, % Inhibition, RPS6KA3/RSK2 domain2
From the text: as §1

[11] = biological target: T5, cellular kinases of SH-SY5Y cells (Homo sapiens, UniProt P78356); conditions: 2µM; SH-SY5Y cells; Labeling Site ATP; AKDLPTFKDNDFLNEGQK; read-out: KiNativ in-cell binding, % Inhibition, PIP4K2B
T5 construct: endogenous in cells; host or cells: SH-SY5Y
From the text: as §1

[12] = biological target: T6, cellular kinases of SH-SY5Y cells (Homo sapiens, UniProt Q15131); conditions: 2µM; SH-SY5Y cells; labeling site Lys2; peptide DLKVSNLLMTDK
T6 construct: endogenous in cells; host or cells: SH-SY5Y
From the text: as §1

[13] = biological target: cellular kinases of SH-SY5Y cells (Homo sapiens, UniProt Q16512); conditions: 2µM; SH-SY5Y cells; Labeling Site Lys1; VLLSEFRPSGELFAIKALK; read-out: KiNativ in-cell binding, % Inhibition, PKN1
From the text: as §1

[14] = biological target: cellular kinases of SH-SY5Y cells (Homo sapiens, UniProt Q5S007); conditions: 2µM; SH-SY5Y cells; Labeling Site Lys2; DLKPHNVLLFTLYPNAAIIAK; read-out: KiNativ in-cell binding, % Inhibition, LRRK2
From the text: as §1

[15] = biological target: T7, cellular kinases of SH-SY5Y cells (Homo sapiens, UniProt Q7RTN6); conditions: 2µM; SH-SY5Y cells; Labeling Site Activation Loop; YSVKVLPWLSPEVLQQNLQGYDAK; read-out: KiNativ in-cell binding, % Inhibition, STRADA
T7 construct: endogenous in cells; host or cells: SH-SY5Y
From the text: as §1

[16] = biological target: T8, cellular kinases of SH-SY5Y cells (Homo sapiens, UniProt Q8TCG2); conditions: 2µM; SH-SY5Y cells; labeling site ATP; peptide SEEPYGQLNPKWTK
T8 construct: endogenous in cells; host or cells: SH-SY5Y
From the text: as §1

[17] = biological target: cellular kinases of SH-SY5Y cells (Homo sapiens, UniProt Q99683); conditions: 2µM; SH-SY5Y cells; Labeling Site Lys2; DIKGDNVLINTYSGVLK; read-out: KiNativ in-cell binding, % Inhibition, MAP3K5
From the text: as §1

[18] = biological target: T9, cellular kinases of SH-SY5Y cells (Homo sapiens, UniProt Q9H2G2); conditions: 2µM, SH-SY5Y cells
T9 construct: endogenous in cells; host or cells: SH-SY5Y
From the text: as §1

Chain of cellular kinases of SH-SY5Y cells (Homo sapiens, UniProt O14965) (O14965 whole entry): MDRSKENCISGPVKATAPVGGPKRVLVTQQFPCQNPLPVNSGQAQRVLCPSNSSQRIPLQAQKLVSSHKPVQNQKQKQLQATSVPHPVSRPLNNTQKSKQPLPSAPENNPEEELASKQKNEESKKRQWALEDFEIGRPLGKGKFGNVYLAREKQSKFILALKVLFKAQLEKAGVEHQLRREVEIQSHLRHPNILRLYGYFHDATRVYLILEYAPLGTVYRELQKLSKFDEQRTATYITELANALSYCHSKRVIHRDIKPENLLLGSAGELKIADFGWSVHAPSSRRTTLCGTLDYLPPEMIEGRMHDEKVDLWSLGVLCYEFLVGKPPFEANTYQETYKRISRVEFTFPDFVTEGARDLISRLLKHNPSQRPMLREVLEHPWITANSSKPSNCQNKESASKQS
T9 sequence (Q9H2G2 whole entry): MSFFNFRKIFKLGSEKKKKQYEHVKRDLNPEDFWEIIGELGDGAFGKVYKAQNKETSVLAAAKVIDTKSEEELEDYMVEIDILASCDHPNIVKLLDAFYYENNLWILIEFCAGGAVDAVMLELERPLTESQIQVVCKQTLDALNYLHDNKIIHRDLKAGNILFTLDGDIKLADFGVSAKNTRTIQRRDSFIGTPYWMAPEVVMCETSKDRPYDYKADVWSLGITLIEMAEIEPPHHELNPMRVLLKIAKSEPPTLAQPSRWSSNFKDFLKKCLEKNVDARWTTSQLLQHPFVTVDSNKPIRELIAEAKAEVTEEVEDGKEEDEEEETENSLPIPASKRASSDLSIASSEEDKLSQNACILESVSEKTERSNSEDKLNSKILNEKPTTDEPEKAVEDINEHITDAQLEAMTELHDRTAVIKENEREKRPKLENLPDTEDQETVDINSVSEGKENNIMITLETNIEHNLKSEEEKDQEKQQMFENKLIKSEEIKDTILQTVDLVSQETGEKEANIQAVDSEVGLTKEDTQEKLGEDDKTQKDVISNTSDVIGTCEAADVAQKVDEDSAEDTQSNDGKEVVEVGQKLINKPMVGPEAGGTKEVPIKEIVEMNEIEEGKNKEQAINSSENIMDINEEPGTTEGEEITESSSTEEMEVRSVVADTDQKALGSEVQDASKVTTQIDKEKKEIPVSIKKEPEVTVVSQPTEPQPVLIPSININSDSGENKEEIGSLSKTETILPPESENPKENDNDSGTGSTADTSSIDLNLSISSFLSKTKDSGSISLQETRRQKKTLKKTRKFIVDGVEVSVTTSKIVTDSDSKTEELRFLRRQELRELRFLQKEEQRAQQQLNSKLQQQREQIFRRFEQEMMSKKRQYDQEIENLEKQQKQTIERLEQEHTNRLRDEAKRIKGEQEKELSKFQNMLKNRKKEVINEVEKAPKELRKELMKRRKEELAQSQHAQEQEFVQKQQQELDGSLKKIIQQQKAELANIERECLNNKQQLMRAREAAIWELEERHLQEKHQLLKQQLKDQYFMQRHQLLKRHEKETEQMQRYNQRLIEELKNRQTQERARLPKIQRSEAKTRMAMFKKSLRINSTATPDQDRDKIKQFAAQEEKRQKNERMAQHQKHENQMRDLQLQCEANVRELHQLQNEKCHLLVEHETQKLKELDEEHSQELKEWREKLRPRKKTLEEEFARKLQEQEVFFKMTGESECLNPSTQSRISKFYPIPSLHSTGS
T2 sequence (O95835 whole entry): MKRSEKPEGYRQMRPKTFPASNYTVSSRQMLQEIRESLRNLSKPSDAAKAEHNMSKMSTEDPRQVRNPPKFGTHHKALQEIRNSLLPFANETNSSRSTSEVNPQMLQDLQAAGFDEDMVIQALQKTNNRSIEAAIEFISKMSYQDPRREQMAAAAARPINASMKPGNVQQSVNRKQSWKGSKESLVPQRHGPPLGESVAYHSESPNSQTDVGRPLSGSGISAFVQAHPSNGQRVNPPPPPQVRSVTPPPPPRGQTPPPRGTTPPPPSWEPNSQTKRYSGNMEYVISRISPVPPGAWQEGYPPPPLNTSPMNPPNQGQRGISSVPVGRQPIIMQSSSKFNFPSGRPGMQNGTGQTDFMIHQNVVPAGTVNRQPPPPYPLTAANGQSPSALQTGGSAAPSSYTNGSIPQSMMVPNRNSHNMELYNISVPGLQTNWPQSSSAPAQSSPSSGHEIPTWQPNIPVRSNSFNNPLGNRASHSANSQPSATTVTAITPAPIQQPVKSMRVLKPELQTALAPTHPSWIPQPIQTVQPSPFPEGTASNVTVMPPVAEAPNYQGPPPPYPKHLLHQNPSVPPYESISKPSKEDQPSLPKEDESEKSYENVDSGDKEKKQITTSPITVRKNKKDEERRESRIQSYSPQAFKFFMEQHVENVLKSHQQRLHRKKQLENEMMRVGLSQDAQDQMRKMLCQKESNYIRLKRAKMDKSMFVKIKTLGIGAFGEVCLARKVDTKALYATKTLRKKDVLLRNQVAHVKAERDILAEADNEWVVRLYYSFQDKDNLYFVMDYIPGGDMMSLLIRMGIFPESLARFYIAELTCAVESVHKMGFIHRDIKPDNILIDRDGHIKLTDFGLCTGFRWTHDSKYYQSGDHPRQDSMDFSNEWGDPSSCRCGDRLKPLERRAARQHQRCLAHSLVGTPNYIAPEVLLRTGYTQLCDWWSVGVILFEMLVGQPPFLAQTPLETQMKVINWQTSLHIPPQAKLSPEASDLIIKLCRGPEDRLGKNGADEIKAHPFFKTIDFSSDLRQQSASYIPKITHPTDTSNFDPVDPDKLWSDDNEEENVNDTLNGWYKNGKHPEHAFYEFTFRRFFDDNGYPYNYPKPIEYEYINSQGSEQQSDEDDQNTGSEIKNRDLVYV
T3 sequence (P23743 whole entry): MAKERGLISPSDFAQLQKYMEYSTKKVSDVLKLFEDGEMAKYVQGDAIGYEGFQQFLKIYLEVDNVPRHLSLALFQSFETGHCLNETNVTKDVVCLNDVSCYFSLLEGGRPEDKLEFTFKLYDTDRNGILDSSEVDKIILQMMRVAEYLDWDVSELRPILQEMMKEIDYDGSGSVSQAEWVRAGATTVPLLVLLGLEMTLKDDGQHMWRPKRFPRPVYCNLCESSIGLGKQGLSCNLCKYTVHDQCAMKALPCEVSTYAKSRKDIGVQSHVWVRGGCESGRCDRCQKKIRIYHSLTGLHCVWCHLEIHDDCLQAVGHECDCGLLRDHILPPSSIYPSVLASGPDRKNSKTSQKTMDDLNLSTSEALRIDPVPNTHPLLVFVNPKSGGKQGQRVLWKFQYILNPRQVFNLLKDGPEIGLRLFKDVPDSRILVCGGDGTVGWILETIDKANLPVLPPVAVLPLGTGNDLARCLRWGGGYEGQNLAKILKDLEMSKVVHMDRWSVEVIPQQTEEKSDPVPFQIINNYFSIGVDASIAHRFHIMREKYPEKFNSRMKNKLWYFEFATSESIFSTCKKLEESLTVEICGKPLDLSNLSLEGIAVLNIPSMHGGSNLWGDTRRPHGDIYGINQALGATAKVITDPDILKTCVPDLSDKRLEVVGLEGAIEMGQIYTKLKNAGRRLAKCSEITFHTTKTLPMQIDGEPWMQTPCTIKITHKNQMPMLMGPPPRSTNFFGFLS
T1 sequence (O60307 whole entry): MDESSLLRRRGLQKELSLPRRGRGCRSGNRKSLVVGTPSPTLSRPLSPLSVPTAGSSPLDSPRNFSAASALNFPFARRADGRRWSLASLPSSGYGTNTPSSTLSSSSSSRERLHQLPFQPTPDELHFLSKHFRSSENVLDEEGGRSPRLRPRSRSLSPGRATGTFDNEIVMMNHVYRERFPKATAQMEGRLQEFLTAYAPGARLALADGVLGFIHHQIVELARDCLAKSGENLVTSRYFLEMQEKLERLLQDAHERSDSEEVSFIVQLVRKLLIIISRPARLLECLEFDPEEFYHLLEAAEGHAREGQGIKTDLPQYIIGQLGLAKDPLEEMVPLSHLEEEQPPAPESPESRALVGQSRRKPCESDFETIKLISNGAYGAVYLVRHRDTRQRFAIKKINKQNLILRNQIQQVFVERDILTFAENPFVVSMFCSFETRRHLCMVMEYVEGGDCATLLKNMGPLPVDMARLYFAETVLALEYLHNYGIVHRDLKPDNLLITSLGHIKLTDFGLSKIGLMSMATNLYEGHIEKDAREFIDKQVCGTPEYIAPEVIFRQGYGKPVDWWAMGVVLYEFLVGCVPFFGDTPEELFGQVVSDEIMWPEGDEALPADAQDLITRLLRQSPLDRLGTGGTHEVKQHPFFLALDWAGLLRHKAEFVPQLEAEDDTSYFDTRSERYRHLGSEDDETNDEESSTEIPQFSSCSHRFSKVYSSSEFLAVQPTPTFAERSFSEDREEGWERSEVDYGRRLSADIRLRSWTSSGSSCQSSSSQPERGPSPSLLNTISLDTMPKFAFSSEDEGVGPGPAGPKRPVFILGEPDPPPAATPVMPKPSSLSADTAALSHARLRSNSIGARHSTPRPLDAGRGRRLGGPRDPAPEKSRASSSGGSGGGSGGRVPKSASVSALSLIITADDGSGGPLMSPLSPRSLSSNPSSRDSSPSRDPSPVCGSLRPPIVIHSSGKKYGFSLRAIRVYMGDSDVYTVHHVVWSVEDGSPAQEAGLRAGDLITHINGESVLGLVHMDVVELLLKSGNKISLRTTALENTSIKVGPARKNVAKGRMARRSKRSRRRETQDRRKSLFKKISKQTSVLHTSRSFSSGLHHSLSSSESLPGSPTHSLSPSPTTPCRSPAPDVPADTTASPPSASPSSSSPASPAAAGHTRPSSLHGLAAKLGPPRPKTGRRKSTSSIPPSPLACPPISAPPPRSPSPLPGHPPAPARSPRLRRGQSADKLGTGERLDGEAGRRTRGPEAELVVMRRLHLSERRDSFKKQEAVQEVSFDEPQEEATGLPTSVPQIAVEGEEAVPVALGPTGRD

Question: Which inhibition at 2 µM ([1]; Labeling Site Lys1, FILALKVLFK) does the source give for Cc1cccc(-c2nc(Nc3ccc4ncsc4c3)c3ccccc3n2)n1 [NK140] here?
Answer: The inhibition at 2 µM was 8.2%.

Question: And the inhibition at 2 µM ([1]; Labeling Site Lys2, DIKPENLLLGSAGELK)?
Answer: The inhibition at 2 µM was 18%.

Question: And the inhibition at 2 µM [2]?
Answer: Its inhibition at 2 µM is 1.2%.

Question: What about the inhibition at 2 µM ([3]; Labeling Site Lys1, ALYATKTLR) of the same compound?
Answer: The inhibition at 2 µM was 20.9%.

Question: And the inhibition at 2 µM ([3]; Labeling Site Lys2, DIKPDNILIDR)?
Answer: The inhibition at 2 µM was 19.3%.

Question: What about the inhibition at 2 µM [4] of the same compound?
Answer: The inhibition at 2 µM was 32.5%.

Question: And the inhibition at 2 µM [5]?
Answer: Its inhibition at 2 µM is -19.8%.

Question: What about the “KiNativ in-cell binding, DGKA” value [6] of the same compound?
Answer: The value was -19.6.

Question: And the inhibition at 2 µM [7]?
Answer: Its inhibition at 2 µM is 21.9%.

Question: And the inhibition at 2 µM [8]?
Answer: Its inhibition at 2 µM is 18.4%.

Question: What about the inhibition at 2 µM ([9]; Labeling Site Activation Loop, MCDFGISGYLVDSVAKTMDAGCKPYMAPER, read-out: KiNativ in-cell binding, % Inhibition, MAP2K3) of the same compound?
Answer: The inhibition at 2 µM was 2.5%.

Question: What about the “KiNativ in-cell binding, MAP2K3” value ([9]; labeling site Lys1, peptide HAQSGTIMAVKR) of the same compound?
Answer: The value was -144.3.

Question: And the “KiNativ in-cell binding, MAP2K3” value ([9]; labeling site Lys2, peptide DVKPSNVLINK)?
Answer: Its value is -182.7.

Question: And the inhibition at 2 µM [10]?
Answer: Its inhibition at 2 µM is -54.8%.

Question: And the inhibition at 2 µM [11]?
Answer: Its inhibition at 2 µM is 27.3%.

Question: What about the “KiNativ in-cell binding, CDK10” value [12] of the same compound?
Answer: Its value is 3.3.

Question: And the inhibition at 2 µM [13]?
Answer: The inhibition at 2 µM was 3%.

Question: And the inhibition at 2 µM [14]?
Answer: The inhibition at 2 µM was 6%.

Question: What about the inhibition at 2 µM [15] of the same compound?
Answer: Its inhibition at 2 µM is 48.6%.

Question: What about the “KiNativ in-cell binding, PI4K2B” value [16] of the same compound?
Answer: The value was 11.9.

Question: And the inhibition at 2 µM [17]?
Answer: The inhibition at 2 µM was 18.7%.

Question: What about the inhibition at 2 µM ([18]; Labeling Site Lys1, AQNKETSVLAAAKVIDTK, read-out: KiNativ in-cell binding, % Inhibition, SLK (SLK OR FYN/SLK)) of the same compound?
Answer: Its inhibition at 2 µM is 16.4%.

Question: And the inhibition at 2 µM ([18]; Labeling Site Lys2, DLKAGNILFTLDGDIK, read-out: KiNativ in-cell binding, % Inhibition, SLK)?
Answer: The inhibition at 2 µM was 26.7%.

— publication PMC9851200, “Multiparameter phenotypic screening for endogenous TFEB and TFE3 translocation identifies novel chemical series modulating lysosome function” (Autophagy, 2022)
